According to patent US8410157B2, “Fungicidal N-cycloalkyl-benzyl-thiocarboxamides or N-cycloalkyl-benzyl-N′-substituted-amidine derivatives” (Bayer Cropscience AG, priority 2007, dated 2013):

Test: LogP (Table 1)
Type: physicochemical

Compound | LogP
Cc1nn(C)c(F)c1C(=S)N(C1CC1)C(C)c1cccc(OCc2ccccc2)c1 (racemic) [Compound 17] | 4.36
Cc1nn(C)c(F)c1C(=S)N(Cc1ccc(Oc2ccc(Cl)cc2)cc1)C1CC1 [Compound 1] | 4.59
Cc1nn(C)c(F)c1C(=S)N(Cc1ccc(-c2ccc(F)c(Cl)c2)cc1F)C1CC1 [Compound 2] | 4.73
Cc1nn(C)c(F)c1C(=S)N(Cc1cccc(C(F)(F)F)c1Cl)C1CC1 [Compound 3] | 3.92
CCc1cccc(CC)c1CN(C(=S)c1c(C)nn(C)c1F)C1CC1 [Compound 4] | 4.39
Cc1nn(C)c(F)c1C(=S)N(Cc1ccc(Oc2ccccc2)cc1)C1CC1 [Compound 5] | 4.06
Cc1nn(C)c(F)c1C(=S)N(Cc1c(Cl)cc(Cl)cc1Cl)C1CC1 [Compound 6] | 4.42
Cc1nn(C)c(F)c1C(=S)N(Cc1ccccc1[Si](C)(C)C)C1CC1 [Compound 7] | 4.64
Cc1nn(C)c(F)c1C(=S)N(Cc1ccc(C(F)(F)F)cc1Cl)C1CC1 [Compound 8] | 4.14
Cc1nn(C)c(F)c1C(=S)N(Cc1cc(C(F)(F)F)ccc1Cl)C1CC1 [Compound 9] | 3.96
Cc1nn(C)c(F)c1C(=S)N(Cc1ccccc1C1CCCCC1)C1CC1 [Compound 11] | 5.17
Cc1nn(C)c(F)c1C(=S)N(Cc1ccccc1I)C1CC1 [Compound 12] | 3.68
Cc1nn(C)c(F)c1C(=S)N(Cc1c(Br)cc(Br)cc1Br)C1CC1 [Compound 13] | 4.86
Cc1nn(C)c(F)c1C(=S)N(Cc1ccccc1C(C)C)C1CC1 [Compound 14] | 3.89
Cc1ccc(C(F)(F)F)c(CN(C(=S)c2c(C)nn(C)c2F)C2CC2)c1 [Compound 16] | 4.06
Cc1nn(C)c(F)c1C(=S)N(Cc1ccc(Oc2ccc(Cl)cc2Cl)cc1)C1CC1 [Compound 18] | 5
Cc1nn(C)c(F)c1C(=S)N(Cc1cc(Cl)ccc1Br)C1CC1 [Compound 22] | 3.99
CCc1nn(C)c(F)c1C(=S)N(Cc1ccc(C(F)(F)F)cc1Cl)C1CC1 [Compound 28] | 4.54
Cn1cc(C(=S)N(Cc2ccccc2Br)C2CC2)c(C(F)F)n1 [Compound 31] | 3.46
Cc1ccc(C(F)(F)F)c(CN(C(=S)c2cn(C)nc2C(F)F)C2CC2)c1 [Compound 32] | 4.01
Cn1cc(C(=S)N(Cc2cccc(OCc3ccccc3)c2)C2CC2)c(C(F)F)n1 [Compound 33] | 4.06
Cn1cc(C(=S)N(Cc2c(Cl)cccc2C(F)(F)F)C2CC2)c(C(F)F)n1 [Compound 34] | 3.71
Cn1cc(C(=S)N(Cc2ccccc2[Si](C)(C)C)C2CC2)c(C(F)F)n1 [Compound 37] | 4.49
Cn1cc(C(=S)N(Cc2cc3c(cc2Cl)OCO3)C2CC2)c(C(F)(F)F)c1 [Compound 44] | 4.01
Cn1cc(C(=S)N(Cc2c(Cl)cc(OC(F)(F)F)cc2Cl)C2CC2)c(C(F)(F)F)n1 [Compound 45] | 4.9
Cn1nc(C(=S)N(Cc2c(Cl)cccc2C(F)(F)F)C2CC2)c(C(F)(F)F)n1 [Compound 46] | 4.67
Cn1nc(C(=S)N(Cc2cc(Cl)ccc2C(F)(F)F)C2CC2)c(C(F)(F)F)n1 [Compound 47] | 4.94
Cc1oc(C(C)(C)C)cc1C(=S)N(Cc1ccccc1I)C1CC1 [Compound 54] | 5.95

Further lines, results first:

LogP | Compound
4.97 | CCCC(c1ccc(Cl)cc1Cl)N(C(=S)c1c(C)nn(C)c1F)C1CC1 (racemic) [Compound 10]
4.14 | Cc1nn(C)c(F)c1C(=S)N(C1CC1)C(C)c1ccc(Cl)cc1Cl (racemic) [Compound 15]
4.04 | Cc1nn(C)c(F)c1C(=S)N(C1CC1)C(C)c1cc(Cl)ccc1Cl (racemic) [Compound 19]
4.49 | CC(c1cc(Cl)cc(Cl)c1)N(C(=S)c1cn(C)nc1Cl)C1CC1 (racemic) [Compound 49]
4.39 | CCCc1nn(C)cc1C(=S)N(C1CC1)C(C)c1ccc(Cl)cc1Cl (racemic) [Compound 56]
4.09 | Cn1cc(C(=S)N(Cc2ccc(C(F)(F)F)cc2Cl)C2CC2)c(C(F)F)n1 [Compound 35]
4.01 | Cn1cc(C(=S)N(Cc2cc(Cl)ccc2C(F)(F)F)C2CC2)c(C(F)F)n1 [Compound 36]
3.89 | Cn1cc(C(=S)N(Cc2cc(Cl)ccc2Br)C2CC2)c(C(F)F)n1 [Compound 42]
4.95 | Cn1nc(C(=S)N(Cc2ccc(Cl)cc2Cl)C2CC2)c(C(F)(F)F)n1 [Compound 48]
3.83 | Cn1cc(C(=S)N(Cc2c(Cl)cccc2C(F)(F)F)C2CC2)c(Cl)n1 [Compound 50]
3.73 | Cn1cc(C(=S)N(Cc2ccccc2I)C2CC2)c(Cl)n1 [Compound 51]
4.49 | Cn1cc(C(=S)N(Cc2c(Cl)cc(Cl)cc2Cl)C2CC2)c(Cl)n1 [Compound 52]
3.53 | CCc1nn(C)cc1C(=S)N(Cc1ccccc1I)C1CC1 [Compound 53]
3.71 | Cn1cc(C(=S)N(Cc2c(Cl)cccc2Cl)C2CC2)c(I)n1 [Compound 55]
